Measurements as given in US10780074B2, “Compounds and uses thereof” (Sunovion Pharmaceuticals Inc., priority 2017, dated 2020).
Structures can show the parent of a compound that is named as a salt.

System: behaviors of compound-treated mice
Test: Neuropharmacological Assay (SmartCube)
Type: in vivo
Conditions: for minimal effective dose: Mus musculus, ip, 0.25 h, dose having 50% or more total activity in SmartCube, i.p., read-out: MED (minimal effective dose); for AD: ADHD (probability that activity matches class) / AG: analgesic (probability that activity matches class) / AX: anxiolytic (probability that activity matches class) / CE: cognitive enhancer (probability that activity matches class) / DP: anti-depressant (probability that activity matches class) / MS: mood stabilizer (probability that activity matches class) / PS: anti-psychotic (probability that activity matches class) / SD: sedative hypnotic (probability that activity matches class) / UN: uncharacterized CNS activity (probability that activity matches class): i.p. 15 min before behavioral test, most efficacious dose(s) of 3 doses
Summary of the method: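 Behavioral signatures were captured automatically by video, and each drug class received a probability for the best of three i.p. doses given 15 min pre-test (vehicle: Pharmasolve/PEG/propylene glycol). Potency is given as MED, the lowest mpk dose (typically 0.3–30) reaching 50% or more total activity.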

SMILES	minimal effective dose	AD: ADHD (probability that activity matches class)	AG: analgesic (probability that activity matches class)	AX: anxiolytic (probability that activity matches class)	CE: cognitive enhancer (probability that activity matches class)	DP: anti-depressant (probability that activity matches class)	MS: mood stabilizer (probability that activity matches class)	PS: anti-psychotic (probability that activity matches class)	SD: sedative hypnotic (probability that activity matches class)	UN: uncharacterized CNS activity (probability that activity matches class)
CNC[C@H]1OCCc2c(-c3cocn3)cccc21 [Compound 103, (S)—N-methyl-1-(5-(oxazol-4-yl)isochroman-1-yl)methanamine HCl salt]	≤ 3 mg/kg	++ (5% ≤ ++ <25%)	+ (LOQ ≤ + <5%)	++ (5% ≤ ++ <25%)	+ (LOQ ≤ + <5%)	++++ (50% ≤ ++++)	+ (LOQ ≤ + <5%)	+ (LOQ ≤ + <5%)	+ (LOQ ≤ + <5%)	+ (LOQ ≤ + <5%)
CNC[C@@H]1OCCc2c(-c3ncco3)cccc21 [Compound 104, (R)—N-Methyl-1-(5-(oxazol-2-yl)isochroman-1-yl)methanamine hydrochloride salt]	> 30 mg/kg	+ (LOQ ≤ + <5%)	+ (LOQ ≤ + <5%)	++ (5% ≤ ++ <25%)	+ (LOQ ≤ + <5%)	++ (5% ≤ ++ <25%)	+ (LOQ ≤ + <5%)	+ (LOQ ≤ + <5%)	+ (LOQ ≤ + <5%)	+ (LOQ ≤ + <5%)
CNC[C@H]1OCCc2c(-c3ncco3)cccc21 [Compound 105, (S)—N-methyl-1-(5-(oxazol-2-yl)isochroman-1-yl)methanamine dihydrochloride]	3 to 10 mg/kg	+ (LOQ ≤ + <5%)	+ (LOQ ≤ + <5%)	+ (LOQ ≤ + <5%)	+ (LOQ ≤ + <5%)	++++ (50% ≤ ++++)	+ (LOQ ≤ + <5%)	+ (LOQ ≤ + <5%)	+ (LOQ ≤ + <5%)	++ (5% ≤ ++ <25%)
Cl.NC[C@@H]1OCCc2c(-c3ncco3)cccc21 [Compound 106, (R)-(5-(Oxazol-2-yl)isochroman-1-yl)methanamine hydrochloride salt]	10 to 30 mg/kg	+ (LOQ ≤ + <5%)	+ (LOQ ≤ + <5%)	+++ (25% ≤ +++ <50%)	++ (5% ≤ ++ <25%)	++ (5% ≤ ++ <25%)	+ (LOQ ≤ + <5%)	+ (LOQ ≤ + <5%)	+ (LOQ ≤ + <5%)	+ (LOQ ≤ + <5%)
NC[C@H]1OCCc2c(-c3ncco3)cccc21 [Compound 107, (S)-(5-(Oxazol-2-yl)isochroman-1-yl)methanamine hydrochloride salt]	10 to 30 mg/kg	+ (LOQ ≤ + <5%)	+ (LOQ ≤ + <5%)	+ (LOQ ≤ + <5%)	+ (LOQ ≤ + <5%)	+++ (25% ≤ +++ <50%)	+ (LOQ ≤ + <5%)	+ (LOQ ≤ + <5%)	+ (LOQ ≤ + <5%)	+ (LOQ ≤ + <5%)
NC[C@H]1OCCc2c(-c3ncc[nH]3)cccc21 [Compound 109, (S)-(5-(1H-Imidazol-2-yl)isochroman-1-yl)methanamine hydrochloride salt]	> 30 mg/kg	+ (LOQ ≤ + <5%)	+ (LOQ ≤ + <5%)	++ (5% ≤ ++ <25%)	+ (LOQ ≤ + <5%)	++ (5% ≤ ++ <25%)	+ (LOQ ≤ + <5%)	+ (LOQ ≤ + <5%)	+ (LOQ ≤ + <5%)	+ (LOQ ≤ + <5%)
CNC[C@@H]1OCCc2c(-c3ncc[nH]3)cccc21 [Compound 110, (R)-1-(5-(1H-Imidazol-2-yl)isochroman-1-yl)-N-methylmethanamine hydrochloride salt]	10 to 30 mg/kg	+ (LOQ ≤ + <5%)	+ (LOQ ≤ + <5%)	++ (5% ≤ ++ <25%)	+ (LOQ ≤ + <5%)	+ (LOQ ≤ + <5%)	+ (LOQ ≤ + <5%)	+ (LOQ ≤ + <5%)	+ (LOQ ≤ + <5%)	+ (LOQ ≤ + <5%)
CNC[C@H]1OCCc2c(-c3ncc[nH]3)cccc21 [Compound 111, (S)-1-(5-(1H-Imidazol-2-yl)isochroman-1-yl)-N-methylmethanamine hydrochloride salt]	10 to 30 mg/kg	+ (LOQ ≤ + <5%)	+ (LOQ ≤ + <5%)	++ (5% ≤ ++ <25%)	+ (LOQ ≤ + <5%)	+ (LOQ ≤ + <5%)	+ (LOQ ≤ + <5%)	+ (LOQ ≤ + <5%)	+ (LOQ ≤ + <5%)	+ (LOQ ≤ + <5%)
NC[C@@H]1OCCc2c(-c3cn[nH]c3)cccc21 [Compound 116, (R)-(5-(1H-pyrazol-4-yl)isochroman-1-yl)methanamine hydrochloride salt]	3 to 10 mg/kg	+ (LOQ ≤ + <5%)	+ (LOQ ≤ + <5%)	++ (5% ≤ ++ <25%)	+ (LOQ ≤ + <5%)	++++ (50% ≤ ++++)	+ (LOQ ≤ + <5%)	++ (5% ≤ ++ <25%)	+ (LOQ ≤ + <5%)	++ (5% ≤ ++ <25%)
NC[C@H]1OCCc2c(-c3cn[nH]c3)cccc21 [Compound 117, (S)-(5-(1H-pyrazol-4-yl)isochroman-1-yl)methanamine hydrochloride salt]	3 to 10 mg/kg	+ (LOQ ≤ + <5%)	+ (LOQ ≤ + <5%)	++ (5% ≤ ++ <25%)	+ (LOQ ≤ + <5%)	++ (5% ≤ ++ <25%)	+ (LOQ ≤ + <5%)	++ (5% ≤ ++ <25%)	++ (5% ≤ ++ <25%)	++ (5% ≤ ++ <25%)
CNC[C@@H]1OCCc2c(-c3cn[nH]c3)cccc21 [Compound 118, (R)-1-(5-(1H-pyrazol-4-yl)isochroman-1-yl)-N-methylmethanamine hydrochloride salt]	10 to 30 mg/kg	+ (LOQ ≤ + <5%)	++ (5% ≤ ++ <25%)	++ (5% ≤ ++ <25%)	+ (LOQ ≤ + <5%)	++ (5% ≤ ++ <25%)	+ (LOQ ≤ + <5%)	+ (LOQ ≤ + <5%)	+++ (25% ≤ +++ <50%)	++ (5% ≤ ++ <25%)
